# From patent publication US7138361B2, “Herbicidal heterocycles” (E. I. du Pont de Nemours and Company, priority 2000, dated 2006)
# How the values were obtained:
# Format in all cases: in vivo
# [1] = test system: Surinam grass (Brachiaria decumbens); assay: Test B postemergence
# Method in brief: (§1)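 Seeds were planted and sprayed preemergence with test chemical in a non-phytotoxic solvent mixture containing surfactant; postemergence plants (2 to 18 cm, 1- to 4-leaf stage) received the same formulation. Greenhouse hold 13 to 15 days, then visual rating versus untreated controls on a 0–100 scale (0 no effect, 100 complete control).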
# [2] = test system: barnyardgrass (Echinochloa crus-galli); assay: Test B postemergence
# Method in brief: as §1
# [3] = test system: cocklebur (Xanthium strumarium); assay: Test B postemergence
# Method in brief: as §1
# [4] = test system: corn (Zea mays); assay: Test B postemergence
# Method in brief: as §1
# [5] = test system: giant foxtail (Setaria faberii); assay: Test B postemergence; conditions: Rate 125 g/ha, scale 0 to 100, 0 no effect, 100 complete control
# Method in brief: as §1
# [6] = test system: lambsquarters (Chenopodium album); assay: Test B postemergence; conditions: Rate 125 g/ha, scale 0 to 100, 0 no effect, 100 complete control
# Method in brief: as §1
# [7] = test system: morning glory (Ipomoea hederacea); assay: Test B postemergence; conditions: Rate 125 g/ha, scale 0 to 100, 0 no effect, 100 complete control
# Method in brief: as §1
# [8] = test system: pigweed (Amaranthus retroflexus); assay: Test B postemergence; conditions: Rate 125 g/ha, scale 0 to 100, 0 no effect, 100 complete control
# Method in brief: as §1
# [9] = test system: velvetleaf (Abutilon theophrasti); assay: Test B postemergence; conditions: Rate 125 g/ha, scale 0 to 100, 0 no effect, 100 complete control
# Method in brief: as §1
# [10] = test system: wheat (Triticum aestivum); assay: Test B postemergence; conditions: Rate 125 g/ha, scale 0 to 100, 0 no effect, 100 complete control
# Method in brief: as §1
# [11] = test system: wild oat (Avena fatua); assay: Test B postemergence; conditions: Rate 125 g/ha, scale 0 to 100, 0 no effect, 100 complete control
# Method in brief: as §1
# [12] = test system: Surinam grass (Brachiaria decumbens); assay: Test B preemergence
# Method in brief: as §1
# [13] = test system: barnyardgrass (Echinochloa crus-galli); assay: Test B preemergence
# Method in brief: as §1
# [14] = test system: cocklebur (Xanthium strumarium); assay: Test B preemergence
# Method in brief: as §1
# [15] = test system: corn (Zea mays); assay: Test B preemergence
# Method in brief: as §1
# [16] = test system: crabgrass (Digitaria sanguinalis); assay: Test B preemergence
# Method in brief: as §1
# [17] = test system: giant foxtail (Setaria faberii); assay: Test B preemergence
# Method in brief: as §1
# [18] = test system: lambsquarters (Chenopodium album); assay: Test B preemergence
# Method in brief: as §1
# [19] = test system: morning glory (Ipomoea hederacea); assay: Test B preemergence
# Method in brief: as §1
# [20] = test system: pigweed (Amaranthus retroflexus); assay: Test B preemergence
# Method in brief: as §1
# [21] = test system: rice (Oryza saliva); assay: Test B preemergence
# Method in brief: as §1
# [22] = test system: velvetleaf (Abutilon theophrasti); assay: Test B preemergence
# Method in brief: as §1
# [23] = test system: smallflower flatsedge (Cyperus difformis); assay: Test C flooded paddy test; conditions: for Flatsedge plant response rating: Flooded Paddy, scale 0 to 100, 0 no effect, 100 complete control; for Plant response rating, Flatsedge: flooded paddy test, scale 0 to 100 (0 no effect, 100 complete control)
# Method in brief: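 Response on a 0-to-100 scale (no effect to complete control) was assessed by eye versus controls. Plants had reached 2 leaves when treated in flooded paddy conditions. The assessment took place after 12–14 days of greenhouse growth.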
# [24] = test system: Sunflower; assay: Test C preemergence; conditions: Rate 500 g/ha, visual evaluation after 12 to 14 days
# [25] = test system: Sunflower; assay: Test C preemergence; conditions: Rate 250 g/ha, scale 0 to 100, 0 no effect, 100 complete control
# [26] = test system: blackgrass (Alopecurus myosuroides); assay: Test B postemergence; conditions: Rate 125 g/ha, scale 0 to 100, 0 no effect, 100 complete control
# Method in brief: as §1
# [27] = test system: crabgrass (Digitaria sanguinalis); assay: Test B postemergence; conditions: Rate 125 g/ha, scale 0 to 100, 0 no effect, 100 complete control
# Method in brief: as §1
# [28] = Rate 125 g/ha, scale 0 to 100, 0 no effect, 100 complete control
# [29] = Rate 500 g/ha, scale 0 to 100, 0 is no effect, 100 is complete control, 13 to 15 days
# [30] = Preemergence, Rate 500 g/ha, scale 0 to 100, 0 no effect, 100 complete control
# [31] = preemergence, Rate 125 g/ha, scale of 0 to 100 where 0 is no effect and 100 is complete control, 13 to 15 days
compound,measurement,setting,value
Cc1ccc(N2CCC(n3ccc(C(C)(C)C)n3)C2=O)cc1I (stereo not drawn) [Compound 122],"Plant response rating, Surinam grass",[1]; [28],0
same,"Plant response rating, Surinam grass",[1]; [29],0
same,"Plant response rating, Barnyardgrass",[2]; [28],0
same,"Plant response rating, Barnyardgrass",[2]; [29],0
same,"Plant response rating, Cocklebur",[3]; [28],30
same,"Plant response rating, Cocklebur",[3]; [29],90
same,"Plant response rating, Corn",[4]; [28],0
same,"Plant response rating, Corn",[4]; [29],0
same,"Plant response rating, Foxtail, Giant",[5],0
same,"Plant response rating, Lambsquarters",[6],90
same,"Plant response rating, Morningglory",[7],20
same,"Plant response rating, Pigweed",[8],30
same,"Plant response rating, Velvetleaf",[9],0
same,"Plant response rating, Wheat",[10],0
same,"Plant response rating, Wild Oat",[11],0
same,"Plant response rating, Surinam grass",[12]; [30],70
same,"Plant response rating, Surinam grass",[12]; [31],50
same,"Plant response rating, Barnyardgrass",[13]; [30],100
same,"Plant response rating, Barnyardgrass",[13]; [31],0
same,"Plant response rating, Cocklebur",[14]; [30],0
same,"Plant response rating, Cocklebur",[14]; [31],0
same,"Plant response rating, Corn",[15]; [30],0
same,"Plant response rating, Corn",[15]; [31],0
same,"Plant response rating, Crabgrass",[16]; [30],100
same,"Plant response rating, Crabgrass",[16]; [31],100
same,"Plant response rating, Foxtail, Giant",[17]; [30],30
same,"Plant response rating, Foxtail, Giant",[17]; [31],20
same,"Plant response rating, Lambsquarters",[18]; [30],100
same,"Plant response rating, Lambsquarters",[18]; [31],100
same,"Plant response rating, Morningglory",[19]; [30],0
same,"Plant response rating, Morningglory",[19]; [31],0
same,"Plant response rating, Pigweed",[20]; [30],100
same,"Plant response rating, Pigweed",[20]; [31],100
same,"Plant response rating, Rice",[21]; [30],0
same,"Plant response rating, Rice",[21]; [31],0
same,"Plant response rating, Velvetleaf",[22]; [30],0
same,"Plant response rating, Velvetleaf",[22]; [31],0
same,Flatsedge plant response rating,[23]; Rate 250 g/ha,80
same,Flatsedge plant response rating,[23]; Rate 500 g/ha,100
same,"Plant response rating, Flatsedge",[23]; Rate 62 g/ha,0
same,"Plant response rating, Flatsedge",[23]; Rate 125 g/ha,80
same,"Plant response rating (0 to 100), Sunflower",[24],30
same,"Plant response rating, Sunflower",[25],0
CC(C)OC(=O)c1cccc(N2CCC(n3ccc(C(C)(C)C)n3)C2=O)c1 (stereo not drawn) [Compound 124],"Plant response rating, Surinam grass",[1]; [28],0
same,"Plant response rating, Surinam grass",[1]; [29],0
same,"Plant response rating, Barnyardgrass",[2]; [28],0
same,"Plant response rating, Barnyardgrass",[2]; [29],0
same,"Plant response rating, Blackgrass",[26],0
same,"Plant response rating, Cocklebur",[3]; [28],20
same,"Plant response rating, Cocklebur",[3]; [29],90
same,"Plant response rating, Corn",[4]; [28],0
same,"Plant response rating, Corn",[4]; [29],0
same,"Plant response rating, Crabgrass",[27],0
same,"Plant response rating, Foxtail, Giant",[5],0
same,"Plant response rating, Lambsquarters",[6],20
same,"Plant response rating, Morningglory",[7],0
same,"Plant response rating, Pigweed",[8],0
same,"Plant response rating, Velvetleaf",[9],0
same,"Plant response rating, Wheat",[10],0
same,"Plant response rating, Wild Oat",[11],0
same,"Plant response rating, Surinam grass",[12]; [30],40
same,"Plant response rating, Surinam grass",[12]; [31],0
same,"Plant response rating, Barnyardgrass",[13]; [30],100
same,"Plant response rating, Barnyardgrass",[13]; [31],70
same,"Plant response rating, Cocklebur",[14]; [30],0
same,"Plant response rating, Cocklebur",[14]; [31],0
same,"Plant response rating, Corn",[15]; [30],0
same,"Plant response rating, Corn",[15]; [31],0
same,"Plant response rating, Crabgrass",[16]; [30],100
same,"Plant response rating, Crabgrass",[16]; [31],30
same,"Plant response rating, Foxtail, Giant",[17]; [30],100
same,"Plant response rating, Foxtail, Giant",[17]; [31],50
same,"Plant response rating, Lambsquarters",[18]; [30],100
same,"Plant response rating, Lambsquarters",[18]; [31],100
same,"Plant response rating, Morningglory",[19]; [30],60
same,"Plant response rating, Morningglory",[19]; [31],0
same,"Plant response rating, Pigweed",[20]; [30],100
same,"Plant response rating, Pigweed",[20]; [31],80
same,"Plant response rating, Rice",[21]; [30],0
same,"Plant response rating, Rice",[21]; [31],0
same,"Plant response rating, Velvetleaf",[22]; [30],0
same,"Plant response rating, Velvetleaf",[22]; [31],0
same,Flatsedge plant response rating,[23]; Rate 250 g/ha,30
same,Flatsedge plant response rating,[23]; Rate 500 g/ha,90
same,"Plant response rating, Flatsedge",[23]; Rate 62 g/ha,0
same,"Plant response rating, Flatsedge",[23]; Rate 125 g/ha,20
same,"Plant response rating, Sunflower",[25],0
